# Entries after “also recorded” stand apart in the source; their conditions may differ.
# Tests used:
# [1] = Plasma pharmacokinetics of PF-04928473 after oral PF-04929113; assay type: in vivo, human; conditions: patients
# [2] = cited from earlier work
# [3] = system: advanced solid tumors and lymphomas; test: Assessment of response; assay type: in vivo, human
# [4] = cited from earlier work; remark: listed apart in the source
# [5] = Comprehensive ophthalmologic evaluation of patients on study; assay type: in vivo, human
# [6] = Phase I dose-escalation study: adverse events, DLT and tolerability in patients; conditions: drug-related; 33 patients
# [7] = cited from earlier work; remark: listed apart in the source
# [8] = system: Hsp70 levels in peripheral blood mononuclear cells (PBMCs); test: Hsp70 induction in peripheral blood by western blot; assay type: in vivo, human
# [9] = no reference given, cited from earlier work
# [10] = human, in vivo
# [11] = Continuous EKG monitoring, corrected QT interval; assay type: in vivo, human; conditions: days 1 and 15 of cycle 1
# [12] = 18 days after initiation of cycle 3
compound,measurement,setting,value
CC1(C)CC(=O)c2c(C(F)(F)F)nn(-c3ccc(C(N)=O)c(N[C@H]4CC[C@H](OC(=O)CN)CC4)c3)c2C1 [PF-04929113],Absorption following oral administration,[1],rapidly absorbed
same,Water solubility,[2],water soluble
same,Median duration of disease stabilization,[3]; 15 patients,16 weeks
same,Objective responses,[3]; 32 evaluable patients,no objective tumor responses
same,Anti-tumor activity as a single-agent,[3]; twice weekly continuous dosing,modest anti-tumor activity
same,Oral bioavailability,[4],orally bioavailable
same,Drug-related ocular toxicity in this study,[5]; oral twice weekly,no clinically significant drug-related ocular toxicity was seen in this study
same,Ocular examination findings in single patients,"[5]; three patients at 77, 133 and 177 mg/m^2, after 8, 10 and 28 cycles",slightly prolonged cone-rod break in the right eye but the ERG was normal; also recorded: normal eye exam; also recorded: slightly prolonged cone-rod break in one patient
same,Grade 4 adverse events or deaths,[6],No grade 4 adverse events (AEs) were seen; also recorded: No drug-related grade 4 adverse events or deaths were seen
same,Retinal damage in animal studies,"[7]; canine model, reports, no reference given",irreversible retinal damage
same,Retinal toxicity,"[7]; dog, in vivo",evidence of retinal toxicity
same,Dose at or above which an increase in Hsp70 levels was seen in all patients,[8]; PBMCs,≥ 33 mg/m^2/day
same,Patients with increased Hsp70 protein level at day 15 and/or day 16,"[8]; PBMCs, compared to baseline",16 out of 19
same,Relation of Hsp70 induction to PK parameters (Cmax and AUCinf of each cohort),[8]; fold increase at 24h versus baseline,linear correlation
same,Inhibition of Hsp90 in patients (PD studies),[8]; in vivo,confirmed inhibition of Hsp90
same,lowest biologically effective dose,"[8]; orally twice weekly, based on PD data",33 mg/m^2
same,Level of Hsp70 induction as a function of dose,[8]; ≤ 44 vs > 44 mg/m^2/dose,greater at higher dose levels
same,Patients with visual symptoms (nictalopia and blurred vision),"[9]; another phase I study, daily administration",4 out of 20 and Four out of 20
same,Patients who complained of blurred vision,"[9]; daily administration, grade 1",one
same,Patients who complained of nictalopia,"[9]; daily administration, grade 1",Three
same,Onset of visual event after beginning the drug,"[9]; in most cases, daily administration",≤ 2 weeks
same,DLTs with daily administration,[9],"3 cases of grade 3 diarrhea, 1 case of grade 2 dehydration and grade 3 gastrointestinal hemorrhage and 1 case of grade 3 visual disturbance and grade 3 diarrhea"
same,"ALT elevation, Grade 1",[10],5 (15) Number of patients (%)
same,"ALT elevation, Grade 2",[10],1 (3) Number of patients (%)
same,"ALT elevation, Grade 3",[10],0 Number of patients (%)
same,"ALT elevation, Grade 4",[10],0 Number of patients (%)
same,"AST elevation, Grade 1",[10],3 (9) Number of patients (%)
same,"AST elevation, Grade 2",[10],2 (6) Number of patients (%)
same,"AST elevation, Grade 3",[10],1 (3) Number of patients (%)
same,"AST elevation, Grade 4",[10],0 Number of patients (%)
same,"Abdominal pain, Grade 1",[10],1 (3) Number of patients (%)
same,"Abdominal pain, Grade 2",[10],0 Number of patients (%)
same,"Abdominal pain, Grade 3",[10],0 Number of patients (%)
same,"Abdominal pain, Grade 4",[10],0 Number of patients (%)
same,"Alkaline phosphatase elevation, Grade 1",[10],0 Number of patients (%)
same,"Alkaline phosphatase elevation, Grade 2",[10],2 (6) Number of patients (%)
same,"Alkaline phosphatase elevation, Grade 3",[10],0 Number of patients (%)
same,"Alkaline phosphatase elevation, Grade 4",[10],0 Number of patients (%)
same,"Anemia, Grade 1",[10],2 (6) Number of patients (%)
same,"Anemia, Grade 2",[10],3 (9) Number of patients (%)
same,"Anemia, Grade 3",[10],0 Number of patients (%)
same,"Anemia, Grade 4",[10],0 Number of patients (%)
same,"Anorexia, Grade 1",[10],2 (6) Number of patients (%)
same,"Anorexia, Grade 2",[10],1 (3) Number of patients (%)
same,"Anorexia, Grade 3",[10],0 Number of patients (%)
same,"Anorexia, Grade 4",[10],0 Number of patients (%)
same,"Arthritis (non-septic), Grade 1",[10],0 Number of patients (%)
same,"Arthritis (non-septic), Grade 2",[10],1 (3) Number of patients (%)
same,"Arthritis (non-septic), Grade 4",[10],0 Number of patients (%)
same,"Constipation, Grade 1",[10],1 (3) Number of patients (%)
same,"Constipation, Grade 2",[10],0 Number of patients (%)
same,"Constipation, Grade 3",[10],0 Number of patients (%)
same,"Constipation, Grade 4",[10],0 Number of patients (%)
same,"Cough, Grade 1",[10],1 (3) Number of patients (%)
same,"Cough, Grade 2",[10],0 Number of patients (%)
same,"Cough, Grade 3",[10],0 Number of patients (%)
same,"Cough, Grade 4",[10],0 Number of patients (%)
same,"Creatinine phosphokinase elevation, Grade 1",[10],1 (3) Number of patients (%)
same,"Creatinine phosphokinase elevation, Grade 2",[10],0 Number of patients (%)
same,"Creatinine phosphokinase elevation, Grade 3",[10],0 Number of patients (%)
same,"Creatinine phosphokinase elevation, Grade 4",[10],0 Number of patients (%)
same,"Diarrhea, Grade 1",[10],4 (12) Number of patients (%)
same,"Diarrhea, Grade 2",[10],0 Number of patients (%)
same,"Diarrhea, Grade 3",[10],3 (9) Number of patients (%)
same,"Diarrhea, Grade 4",[10],0 Number of patients (%)
same,Dose Level at which grade 3 AST elevation occurred,[10],77 mg/m^2
same,Dose Level at which grade 3 Non-septic arthritis occurred,[10],16 mg/m^2
same,Dose Level at which grade 3 Thrombocytopenia occurred,[10],177 mg/m^2
same,"Dysgeusia, Grade 1",[10],1 (3) Number of patients (%)
same,"Dysgeusia, Grade 2",[10],1 (3) Number of patients (%)
same,"Dysgeusia, Grade 3",[10],0 Number of patients (%)
same,"Dysgeusia, Grade 4",[10],0 Number of patients (%)
same,"Dyspepsia, Grade 1",[10],1 (3) Number of patients (%)
same,"Dyspepsia, Grade 2",[10],0 Number of patients (%)
same,"Dyspepsia, Grade 3",[10],0 Number of patients (%)
same,"Dyspepsia, Grade 4",[10],0 Number of patients (%)
same,"Edema, Grade 1",[10],0 Number of patients (%)
same,"Edema, Grade 2",[10],1 (3) Number of patients (%)
same,"Edema, Grade 3",[10],0 Number of patients (%)
same,"Edema, Grade 4",[10],0 Number of patients (%)
same,"Emesis, Grade 1",[10],2 (6) Number of patients (%)
same,"Emesis, Grade 2",[10],1 (3) Number of patients (%)
same,"Emesis, Grade 3",[10],0 Number of patients (%)
same,"Emesis, Grade 4",[10],0 Number of patients (%)
same,"Fatigue, Grade 1",[10],4 (12) Number of patients (%)
same,"Fatigue, Grade 2",[10],2 (6) Number of patients (%)
same,"Fatigue, Grade 3",[10],0 Number of patients (%)
same,"Fatigue, Grade 4",[10],0 Number of patients (%)
same,"Flu-like symptoms, Grade 1",[10],1 (3) Number of patients (%)
same,"Flu-like symptoms, Grade 2",[10],0 Number of patients (%)
same,"Flu-like symptoms, Grade 3",[10],0 Number of patients (%)
same,"Flu-like symptoms, Grade 4",[10],0 Number of patients (%)
same,"Hyponatremia, Grade 1",[10],1 (3) Number of patients (%)
same,"Hyponatremia, Grade 2",[10],0 Number of patients (%)
same,"Hyponatremia, Grade 3",[10],0 Number of patients (%)
same,"Hyponatremia, Grade 4",[10],0 Number of patients (%)
same,"Hypophosphatemia, Grade 1",[10],0 Number of patients (%)
same,"Hypophosphatemia, Grade 2",[10],1 (3) Number of patients (%)
same,"Hypophosphatemia, Grade 3",[10],0 Number of patients (%)
same,"Hypophosphatemia, Grade 4",[10],0 Number of patients (%)
same,"Joint pain, Grade 1",[10],1 (3) Number of patients (%)
same,"Joint pain, Grade 2",[10],1 (3) Number of patients (%)
same,"Joint pain, Grade 3",[10],0 Number of patients (%)
same,"Joint pain, Grade 4",[10],0 Number of patients (%)
same,"Leukopenia, Grade 1",[10],2 (6) Number of patients (%)
same,"Leukopenia, Grade 2",[10],0 Number of patients (%)
same,"Leukopenia, Grade 3",[10],0 Number of patients (%)
same,"Leukopenia, Grade 4",[10],0 Number of patients (%)
same,"Lymphopenia, Grade 1",[10],2 (6) Number of patients (%)
same,"Lymphopenia, Grade 2",[10],6 (18) Number of patients (%)
same,"Lymphopenia, Grade 3",[10],0 Number of patients (%)
same,"Lymphopenia, Grade 4",[10],0 Number of patients (%)
same,"Muscle pain, Grade 1",[10],0 Number of patients (%)
same,"Muscle pain, Grade 2",[10],1 (3) Number of patients (%)
same,"Muscle pain, Grade 3",[10],0 Number of patients (%)
same,"Muscle pain, Grade 4",[10],0 Number of patients (%)
same,"Nausea, Grade 1",[10],8 (24) Number of patients (%)
same,"Nausea, Grade 2",[10],1 (3) Number of patients (%)
same,"Nausea, Grade 3",[10],0 Number of patients (%)
same,"Nausea, Grade 4",[10],0 Number of patients (%)
same,"Neutropenia, Grade 1",[10],1 (3) Number of patients (%)
same,"Neutropenia, Grade 2",[10],0 Number of patients (%)
same,"Neutropenia, Grade 3",[10],0 Number of patients (%)
same,"Neutropenia, Grade 4",[10],0 Number of patients (%)
same,"Thrombocytopenia, Grade 1",[10],4 (12) Number of patients (%)
same,"Thrombocytopenia, Grade 2",[10],0 Number of patients (%)
same,"Thrombocytopenia, Grade 3",[10],1 (3) Number of patients (%)
same,"Thrombocytopenia, Grade 4",[10],0 Number of patients (%)
same,"Weight loss, Grade 1",[10],1 (3) Number of patients (%)
same,"Weight loss, Grade 2",[10],0 Number of patients (%)
same,"Weight loss, Grade 3",[10],0 Number of patients (%)
same,"Weight loss, Grade 4",[10],0 Number of patients (%)
same,grade 3 AEs: AST elevation,[10],3%
same,grade 3 AEs: diarrhea,[10],9%
same,grade 3 AEs: non-septic arthritis,[10],3%
same,grade 3 AEs: thrombocytopenia,[10],3%
same,"Arthritis (non-septic), Grade 3",[10]; [12],1 (3) Number of patients (%)
same,Dose at which the DLT (non-septic arthritis) was noted,[10]; [12],16 mg/m^2/dose
same,Effect on the corrected QT interval,[11],did not reveal any effect
